IC50 data for 30 compounds are collected here from patent US9963434B2, “N-arylmethyl sulfonamide negative modulators of NR2A” (LUC THERAPEUTICS, priority 2013, dated 2018).

The target of the test is NR1/NR2A (Homo sapiens (Human), UniProt Q05586+Q12879). As to the kind of experiment: FDSS Ca2+ influx inhibition assay in HEK293 cells expressing NR1/NR2A. The class given is cell-based. Conditions: 3 μM glutamate, 3 μM glycine, 1 mM Ca2+. On the procedure:
Cell Culture and plating: HEK293 cells expressing NR1/NR2A (Chantest, Cleveland, Ohio) were grown to 70-80% confluency as an adherent monolayer in standard tissue culture flasks at 37° C., 5% CO2 per supplier's instructions.
After induction, cell culture medium was removed and cells were rinsed once with Ca^2+ and Mg^2+-free Dulbecco's phosphate buffered saline. Cells were then removed from the flask using TrypLE™ Express (Life Technologies) according to the manufacturer's instructions and collected to 50 ml centrifuge tubes. Following two washes in Ca^2+/Mg^2+-free HBSS with 20 mM HEPES (HHnoCa), cells were counted and viability assessed using trypan blue. To load cells with Ca^2+-sensitive dye, they were resuspended in fluo-8 plus Component B (AAT Bioquest Products) diluted in HHnoCa and incubated 15 minutes at 37° C., followed by 30 minutes at room temp (in dark). Cells were then washed and resuspended in HHnoCa to remove extracellular dye and plated in 384-well plates (Falcon, uncoated) at 20,000-30,000 cells/well in a final volume of 25 μL/well.
FDSS Assay: To each well of the plate, 10 μL test compound, control (MK801) or HHnoCa buffer was added to a final concentration of 10 μM with a final concentration of DMSO of 0.1%. Following 10 minutes pre-incubation in the dark, plates are loaded onto the Hamamatsu FDSS 6000. After collecting baseline fluorescence images, 3 μM glutamate, 3 μM glycine, and 1 mM Ca^2+ in HHnoCa buffer is added to each well, and Ca^2+ is recorded for 3 minutes. Data were processed by computing ratio of fluorescence at the end of data collection to baseline fluorescence to assess degree of Ca^2+ influx inhibition relative to that observed in MK801.

The mark [1] stands for this setting: inhibition relative to MK801, read-out: NR2A IC50.

Like-named read-outs stand apart in the source and are kept apart here.

Chain of NR1/NR2A (Q12879 23-1464, other chains not shown): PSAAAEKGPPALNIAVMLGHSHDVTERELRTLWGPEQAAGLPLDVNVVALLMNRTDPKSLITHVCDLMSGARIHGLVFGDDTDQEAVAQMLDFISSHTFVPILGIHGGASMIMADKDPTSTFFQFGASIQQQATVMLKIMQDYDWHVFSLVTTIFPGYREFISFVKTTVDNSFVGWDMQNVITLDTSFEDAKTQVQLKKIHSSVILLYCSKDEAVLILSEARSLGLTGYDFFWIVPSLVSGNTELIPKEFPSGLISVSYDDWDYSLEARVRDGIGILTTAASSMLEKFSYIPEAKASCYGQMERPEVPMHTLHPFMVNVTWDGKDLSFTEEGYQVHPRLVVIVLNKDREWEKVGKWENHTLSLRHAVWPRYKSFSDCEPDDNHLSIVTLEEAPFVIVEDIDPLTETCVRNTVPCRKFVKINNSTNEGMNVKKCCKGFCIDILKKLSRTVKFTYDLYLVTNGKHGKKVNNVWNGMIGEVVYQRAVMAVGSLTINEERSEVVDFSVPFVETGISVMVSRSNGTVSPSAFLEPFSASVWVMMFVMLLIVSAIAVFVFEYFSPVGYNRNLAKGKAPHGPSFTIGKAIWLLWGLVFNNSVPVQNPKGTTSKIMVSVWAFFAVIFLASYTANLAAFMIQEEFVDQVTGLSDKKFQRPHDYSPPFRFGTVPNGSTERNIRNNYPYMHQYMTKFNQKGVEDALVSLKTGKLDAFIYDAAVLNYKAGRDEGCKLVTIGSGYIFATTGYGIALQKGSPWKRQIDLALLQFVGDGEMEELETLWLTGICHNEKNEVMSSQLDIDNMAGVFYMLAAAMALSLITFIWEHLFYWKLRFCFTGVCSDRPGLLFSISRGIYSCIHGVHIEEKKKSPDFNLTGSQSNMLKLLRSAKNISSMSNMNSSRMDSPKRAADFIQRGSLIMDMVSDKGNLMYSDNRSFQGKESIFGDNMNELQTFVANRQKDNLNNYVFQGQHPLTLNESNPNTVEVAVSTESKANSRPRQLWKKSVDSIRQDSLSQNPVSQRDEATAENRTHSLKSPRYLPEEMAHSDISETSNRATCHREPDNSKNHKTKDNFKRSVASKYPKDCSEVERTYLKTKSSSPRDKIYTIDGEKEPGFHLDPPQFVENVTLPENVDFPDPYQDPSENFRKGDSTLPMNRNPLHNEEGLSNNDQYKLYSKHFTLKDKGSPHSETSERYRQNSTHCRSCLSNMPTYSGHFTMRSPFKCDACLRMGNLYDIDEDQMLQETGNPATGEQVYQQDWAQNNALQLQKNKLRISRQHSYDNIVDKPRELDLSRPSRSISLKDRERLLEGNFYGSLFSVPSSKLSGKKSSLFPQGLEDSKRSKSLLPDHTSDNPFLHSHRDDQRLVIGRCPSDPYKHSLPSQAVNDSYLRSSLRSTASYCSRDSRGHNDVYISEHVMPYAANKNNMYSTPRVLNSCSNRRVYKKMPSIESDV

For the compound `O=C(NCc1ccncc1)c1ccc(CNS(=O)(=O)c2ccc(F)c(Cl)c2)cn1` [5-(3-chloro-4-fluorobenzenesulfon-amidomethyl)-N-(pyridin-4-ylmethyl)pyridine-2-carboxamide], the IC50 was 10 µM under setting [1] and greater than 10 µM (read-out: Binned Activity). `Cc1ncc(CNC(=O)c2cnc(CNS(=O)(=O)c3cc(F)cc(F)c3)cn2)s1` [5-(3,5-difluorobenzenesulfon-amidomethyl)-N-[(2-methyl-1,3-thiazol-5-yl)methyl]pyrazine-2-carboxamide]: the IC50 is, setting by setting: under setting [1], 10 µM; (read-out: Binned Activity) greater than 10 µM.

In the case of `O=C(NCc1cocn1)c1cnc(CNS(=O)(=O)c2ccc(F)c(Cl)c2)cn1` [5-(3-chloro-4-fluorobenzenesulfon-amidomethyl)-N-(1,3-oxazol-4-ylmethyl)pyrazine-2-carboxamide], the IC50 was 10 µM under setting [1] and greater than 10 µM (read-out: Binned Activity). `Cn1cncc1CNC(=O)c1ccc(CNS(=O)(=O)c2ccc(F)c(Cl)c2)cn1` [5-(3-chloro-4-fluorobenzenesulfon-amidomethyl)-N-[(1-methyl-1H-imidazol-5-yl)methyl]pyridine-2-carboxamide]: the IC50 (read-out: Binned Activity) lay within 1 to 10 µM. On to `Cc1nc(CNC(=O)c2ccc(CNS(=O)(=O)c3ccc(F)c(Cl)c3)nn2)cs1` [6-(3-chloro-4-fluorobenzenesulfon-amidomethyl)-N-[(2-methyl-1,3-thiazol-4-yl)methyl]pyridazine-3-carboxamide], for which the IC50 under setting [1] is 10 µM and the IC50 (read-out: Binned Activity) was greater than 10 µM. As for `O=C(NCc1cncs1)c1ccc(CNS(=O)(=O)c2ccc(F)c(Cl)c2)cn1` [5-(3-chloro-4-fluorobenzenesulfon-amidomethyl)-N-(1,3-thiazol-5-ylmethyl)pyridine-2-carboxamide], the IC50 (read-out: Binned Activity) lay in the range of 0.1 to 1 µM. Take `O=C(NCc1ccncc1)c1ccc(CNS(=O)(=O)c2ccc(F)c(Cl)c2)nc1` [6-(3-chloro-4-fluorobenzenesulfon-amidomethyl)-N-(pyridin-4-ylmethyl)pyridine-3-carboxamide]: the IC50 runs as follows: under setting [1], 10 µM; (read-out: Binned Activity) greater than 10 µM. For the compound `Cc1ncc(CNC(=O)c2cnc(CNS(=O)(=O)c3ccc(Cl)nc3Cl)cn2)s1` [5-(2,6-dichloropyridine-3-sulfonamidomethyl)-N-[(2-methyl-1,3-thiazol-5-yl)methyl]pyrazine-2-carboxamide], the IC50 under setting [1] worked out at 10 µM and the IC50 (read-out: Binned Activity) is greater than 10 µM.

As for `Cc1ncc(CNC(=O)c2ccc(CNC(=O)c3cccc(C#N)c3)cn2)s1` [5-{[(3-cyanophenyl)formamido]methyl}-N-[(2-methyl-1,3-thiazol-5-yl)methyl]pyridine-2-carboxamide], the IC50 under setting [1] was determined as 10 µM and the IC50 (read-out: Binned Activity) is greater than 10 µM.

Take `Cc1ncc(CNC(=O)c2ccc(CNS(=O)(=O)c3ccc(C(F)(F)F)cc3)cn2)s1` [N-[(2-methyl-1,3-thiazol-5-yl)methyl]-5-[4-(trifluoromethyl)benzene-sulfonamidomethyl] pyridine-2-carboxamide]: the IC50 reads like this: under setting [1], 10 µM; (read-out: Binned Activity) greater than 10 µM.

With `O=C(NCc1cnccn1)c1ccc(CNS(=O)(=O)c2ccc(F)c(Cl)c2)cn1` [5-(3-chloro-4-fluorobenzenesulfon-amidomethyl)-N-(pyrazin-2-ylmethyl)pyridine-2-carboxamide], the IC50 (read-out: Binned Activity) is 1 to 10 µM. In the case of `O=C(NCc1ccncn1)c1cnc(CNS(=O)(=O)c2ccc(F)c(Cl)c2)cn1` [5-(3-chloro-4-fluorobenzenesulfon-amidomethyl)-N-(pyrimidin-4-ylmethyl)pyrazine-2-carboxamide], the IC50 is, setting by setting: under setting [1], 10 µM; (read-out: Binned Activity) greater than 10 µM.

As to `O=C(NCc1ncc(C(F)(F)F)cc1Cl)c1ccc(CNS(=O)(=O)c2ccc(F)c(Cl)c2)cn1` [5-(3-chloro-4-fluorobenzenesulfon-amidomethyl)-N-{[3-chloro-5-(trifluoromethyl)pyridin-2-yl]methyl}pyridine-2-carboxamide], the IC50 runs as follows: under setting [1], 10 µM; (read-out: Binned Activity) greater than 10 µM. The like results for `O=C(NCc1ccno1)c1ccc(CNS(=O)(=O)c2ccc(F)c(Cl)c2)nc1` [6-(3-chloro-4-fluorobenzenesulfon-amidomethyl)-N-(1,2-oxazol-5-ylmethyl)pyridine-3-carboxamide] were, in that order, 10 µM and greater than 10 µM. For `COc1ccc(CNC(=O)c2cnc(CNS(=O)(=O)c3ccc(F)c(Cl)c3)cn2)cc1` [5-(3-chloro-4-fluorobenzenesulfon-amidomethyl)-N-[(4-methoxyphenyl)methyl] pyrazine-2-carboxamide], the IC50 by setting is: under setting [1], 10 µM; (read-out: Binned Activity) greater than 10 µM.

Turning to `Cc1ncc(CNC(=O)c2ccc(CNS(=O)(=O)c3cccc4nsnc34)cn2)s1` [5-(2,1,3-benzothiadiazole-4-sulfonamidomethyl)-N-[(2-methyl-1,3-thiazol-5-yl)methyl]pyridine-2-carboxamide], the IC50 under setting [1] stood at 10 µM and the IC50 (read-out: Binned Activity) is greater than 10 µM.

On to `Cc1nnc(CNC(=O)c2cnc(CNS(=O)(=O)c3ccc(F)c(Cl)c3)cn2)o1` [5-(3-chloro-4-fluorobenzenesulfon-amidomethyl)-N-[(5-methyl-1,3,4-oxadiazol-2-yl)methyl]pyrazine-2-carboxamide], for which the IC50 (read-out: Binned Activity) is 1 to 10 µM. In the case of `Cc1cc(CNC(=O)c2cnc(CNS(=O)(=O)c3ccc(F)c(Cl)c3)cn2)n(C)n1` [5-(3-chloro-4-fluorobenzenesulfon-amidomethyl)-N-[(1,3-dimethyl-1H-pyrazol-5-yl)methyl]pyrazine-2-carboxamide], the IC50 is 10 µM under setting [1] and greater than 10 µM (read-out: Binned Activity).

With `O=C(NCc1cncnc1)c1ccc(CNS(=O)(=O)c2ccc(F)c(Cl)c2)cn1` [5-(3-chloro-4-fluorobenzenesulfon-amidomethyl)-N-(pyrimidin-5-ylmethyl)pyridine-2-carboxamide], the IC50 (read-out: Binned Activity) fell in the range of 1 to 10 µM. Take `Cc1ncc(CNC(=O)c2cnc(CNS(=O)(=O)c3cc4ccccc4s3)cn2)s1` [5-(1-benzothiophene-2-sulfonamidomethyl)-N-[(2-methyl-1,3-thiazol-5-yl)methyl]pyrazine-2-carboxamide]: the IC50 by setting is: under setting [1], 10 µM; (read-out: Binned Activity) greater than 10 µM. As for `Cc1ncc(CNC(=O)c2ccc(CNC(=O)c3cc(F)cc(F)c3)cn2)s1` [5-{[(3,5-difluorophenyl)form-amido]methyl}-N-[(2-methyl-1,3-thiazol-5-yl)methyl]pyridine-2-carboxamide], the IC50 was 10 µM under setting [1] and greater than 10 µM (read-out: Binned Activity).

As to `Cc1ncsc1CNC(=O)c1ccc(CNS(=O)(=O)c2ccc(F)c(Cl)c2)cn1` [5-(3-chloro-4-fluorobenzenesulfon-amidomethyl)-N-[(4-methyl-1,3-thiazol-5-yl)methyl]pyridine-2-carboxamide], the IC50 was 10 µM under setting [1] and greater than 10 µM (read-out: Binned Activity). On the same counts, the results for `Cc1ncc(CNC(=O)c2ccc(CNC(=O)c3cccc(F)c3)cn2)s1` [5-{[(3-fluorophenyl)formamido]methyl}-N-[(2-methyl-1,3-thiazol-5-yl)methyl]pyridine-2-carboxamide] are 10 µM and greater than 10 µM.

With `O=C(NCc1cccs1)c1ccc(CNS(=O)(=O)c2ccc(F)c(Cl)c2)nn1` [6-(3-chloro-4-fluorobenzenesulfon-amidomethyl)-N-(thiophen-2-ylmethyl)pyridazine-3-carboxamide], the IC50 is 10 µM under setting [1] and greater than 10 µM (read-out: Binned Activity). For `Cc1ncc(CNC(=O)c2cnc(CNC(=O)c3cc(F)cc(F)c3)c(C)n2)s1` [5-{[(3,5-difluorophenyl)form-amido]methyl}-6-methyl-N-[(2-methyl-1,3-thiazol-5-yl)methyl]pyrazine-2-carboxamide], the IC50 under setting [1] was found to be 10 µM and the IC50 (read-out: Binned Activity) is greater than 10 µM. The like results for `CC(NC(=O)c1ccc(CNS(=O)(=O)c2ccc(F)c(Cl)c2)nn1)c1cccs1` (centres unmarked) [6-(3-chloro-4-fluorobenzenesulfon-amidomethyl)-N-[1-(thiophen-2-yl)ethyl]pyridazine-3-carboxamide] were, in that order, 10 µM and greater than 10 µM.

Take `Cc1ncc(CNC(=O)c2ccc(CNS(=O)(=O)c3cccs3)cn2)s1` [N-[(2-methyl-1,3-thiazol-5-yl)methyl]-5-(thiophene-2-sulfonamidomethyl) pyridine-2-carboxamide]: the IC50 (read-out: Binned Activity) lay in the range of 1 to 10 µM. With `Cc1ccc(CNC(=O)c2cnc(CNS(=O)(=O)c3ccc(F)c(Cl)c3)cn2)s1` [5-(3-chloro-4-fluorobenzenesulfon-amidomethyl)-N-[(5-methylthiophen-2-yl)methyl]pyrazine-2-carboxamide], the IC50 is, setting by setting: under setting [1], 10 µM; (read-out: Binned Activity) greater than 10 µM.

As for `O=C(NCc1ccoc1)c1ccc(CNS(=O)(=O)c2ccc(F)c(Cl)c2)nn1` [6-(3-chloro-4-fluorobenzenesulfon-amidomethyl)-N-(furan-3-ylmethyl)pyridazine-3-carboxamide], the IC50 was 10 µM under setting [1] and greater than 10 µM (read-out: Binned Activity).

For `O=C(NCc1ccno1)c1ccc(CNS(=O)(=O)c2ccc(F)c(Cl)c2)cn1` [5-(3-chloro-4-fluorobenzenesulfon-amidomethyl)-N-(1,2-oxazol-5-ylmethyl)pyridine-2-carboxamide], the IC50 (read-out: Binned Activity) was in the range of 1 to 10 µM.
